# Experimental data: patent US7199130B2, “Substituted 5,6,6a, 11b-tetrahydro-7-oxa-5-aza-benzo[c]fluorene-6-carboxylic acid compounds as NMDA-antagonists” (Gruenenthal GmbH, priority 2001, dated 2007)
# Tests used:
# [1] = biological target: T1, glycine-binding site of the NMDA receptor channel (Rattus norvegicus, UniProt P35439); experiment: Receptor binding (glycine-binding site of the NMDA receptor channel), displacement of (3H)-MDL 105.519
# T1 construct: from tissue; host or cells: rat brain cortex and hippocampus membrane homogenate (male Wistar)
# Experimental: Receptor Binding (Glycine-Binding Site of the NMDA Receptor Channel)
# The investigation for determining the affinity of the compounds according to the invention of the formula I towards the glycine-binding site of the NMDA receptor channel was performed on brain membrane homogenates (homogenate of the cortex and hippocampus area from male rat brain, Wistar strain) [B. M. Baron, B. W. Siegel, B. L. Harrison, R. S. Gross, C. Hawes and P. Towers, Journal of Pharmacology and Experimental Therapeutics, vol. 279, p. 62, 1996].
# To this end, the cortex and hippocampus were dissected out of freshly harvested rat brains and homogenized with ice cooling in 5 mmol/l of TRIS-acetate buffer, 0.32 mol/l of sucrose, pH 7.4 (10 ml/g fresh weight) using a Potter homogenizer (Braun/Melsungen, 10 piston strokes at 500 rpm) and then centrifuged for 10 minutes at 1,000 g and 4° C. […] This membrane homogenate was used in the receptor binding test in a quantity of 100 μl per 1 ml batch (0.1 mg of protein/ml in the final batch). […] The level of non-specific binding was determined in the presence of 1 mmol/l of glycine.
# In further batches, the compounds according to the invention were added in concentration series and the displacement of the radioactive ligand from its specific binding at the glycine-binding site of the NMDA receptor channel was determined. […]
# [2] = test system: formaldehyde-induced nociception; experiment: Formaldehyde test, rat (second phase); type: in vivo; details: iv, male Sprague-Dawley rats, second (late) phase of formaldehyde test, pain rate vs vehicle control
# Experimental: The investigations to determine the antinociceptive action of the compounds according to the invention of the formula I were carried by the formaldehyde test on male rats (Sprague-Dawley, 150–170 g). In the formaldehyde test, a distinction is drawn between the first (early) phase (0–15 min after formaldehyde injection) and the second (later) phase (15–60 min after formaldehyde injection) (D. Dubuisson, S. G. Dennis, Pain 4, 161–174 (1977)). […]
# A nociceptive reaction was induced in the freely mobile test animals by a single, subcutaneous formaldehyde injection (50 μl, 5%) into the dorsal side of the rear hind paw, the reaction being classed according to one of the following behavioral parameters: lifting and holding up the affected paw (score 1), shaking or twitching (score 2), licking and biting (score 3). The differential behavior induced by the formaldehyde injection was recorded by observing the animals in the late phase of the formaldehyde test and assigned a variable weighting in the evaluation. Normal behavior, in which the animal places an even load on all four paws, was recorded as a score of 0. […] The nociceptive behavior was calculated as a “pain rate” (PR). […] On the basis of the calculated PR values, the effect of the substance was determined as a percentage change relative to the control. […]
smiles,measurement,setting,value
"O=C(O)C1Nc2cc(Cl)cc(Cl)c2C2c3ccccc3OC12 (stereo not drawn) [Example 1, 1,3-Dichloro-5,6,6a,11b-tetrahydro-7-oxa-5-aza-benzo [c]fluorene-6-carboxylic acid]",Glycine-binding site of the NMDA receptor channel Displacement,"[1]; 10 μmol/l of substance, displacement of (3H)-MDL 105.519 from specific binding, rat brain membranes",100%
same,Ki,"[1]; rat cortex and hippocampus membrane homogenate, ligand 1 nmol/l (3H)-MDL 105.519, converted from IC50 by Cheng-Prussoff, mean of three independent tests",0.053 µM
same,ED50,[2],7.27 mg/kg
